From patent US6147100A, “Pyrrolidine derivatives having phospholipase A2 inhibitory activity” (Shionogi & Co., Ltd., priority 1997, dated 2000)

What follows are molecules tested against T1, cPLA2 (Homo sapiens, UniProt P47712) (assay: cPLA2 Inhibitory Activity). Conditions: 1-palmitoyl-2-[14C]-arachidonoyl-sn-glycero-3-phosphocholine 2.5 μM, sn-1,2-dioleoylglycerol 1.25 μM; pH 7.5, 15 min at 37° C.
T1 sequence (P47712 1-749): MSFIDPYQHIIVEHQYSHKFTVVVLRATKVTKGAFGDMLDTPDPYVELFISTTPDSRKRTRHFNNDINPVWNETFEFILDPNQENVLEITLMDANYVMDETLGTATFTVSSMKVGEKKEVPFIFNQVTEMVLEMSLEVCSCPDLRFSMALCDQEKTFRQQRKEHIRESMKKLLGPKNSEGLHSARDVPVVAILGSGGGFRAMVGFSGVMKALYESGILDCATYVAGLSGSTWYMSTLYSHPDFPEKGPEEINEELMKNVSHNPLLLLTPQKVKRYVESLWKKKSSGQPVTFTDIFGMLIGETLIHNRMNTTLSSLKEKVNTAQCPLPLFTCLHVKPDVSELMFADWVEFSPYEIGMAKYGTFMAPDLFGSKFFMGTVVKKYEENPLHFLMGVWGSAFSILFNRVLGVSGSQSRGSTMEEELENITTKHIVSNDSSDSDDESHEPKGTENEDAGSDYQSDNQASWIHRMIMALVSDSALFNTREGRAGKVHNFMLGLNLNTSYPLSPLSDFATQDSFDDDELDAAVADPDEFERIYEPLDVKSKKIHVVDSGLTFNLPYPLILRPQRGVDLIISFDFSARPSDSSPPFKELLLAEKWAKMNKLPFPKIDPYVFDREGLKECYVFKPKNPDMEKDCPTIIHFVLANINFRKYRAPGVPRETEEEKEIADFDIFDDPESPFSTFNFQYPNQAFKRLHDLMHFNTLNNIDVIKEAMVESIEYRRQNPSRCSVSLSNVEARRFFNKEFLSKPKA
Format: biochemical
Method: Test Example 1 cPLA2 Inhibitory Activity The compounds of the present invention were tested for the cPLA2 inhibitory activity according to the method disclosed in […]. Roberts, […], and J. E. Putnam, J. Biol. Chem., 1991, 266, 5268-5272 as outlined below. […] The reaction mixture includes 50 mM HEPES buffer (pH 7.5), 1 mM calcium chloride, 150 mM sodium chloride, 0.1 mg/ml bovine serum albumin, and 1.7 mM dithiothreitol. To the reaction mixture was added the compound of the present invention and the substrate solution. The reaction was allowed to start by adding an enzyme and continued for 15 min at 37° C. The fatty acids released by the reaction were extracted by the method described in V. P. Dole, and H. Meinertz, J. Biol. Chem., 1960, 235, 2595-2599 and its radiation activity was measured on a liquid scintillation counter. Control was obtained by conducting the experiment in the same manner except that a compound of the present invention was not added.

Structure (SMILES)	IC50 [nM]
O=C1NC(=O)/C(=C/c2ccc(C(=O)NC[C@@H]3C[C@@H](OCc4ccccc4-c4ccccc4)CN3C(=O)CCC(=O)c3ccccc3)cc2)S1 [Compound A-7]	5000
O=C1NC(=O)/C(=C/c2ccc(C(=O)NC[C@@H]3C[C@@H](OCc4ccccc4-c4ccccc4)CN3C(=O)/C=C\C(=O)c3ccccc3)cc2)S1 [Compound A-8]	24000
C/C(=C/C(=O)c1ccccc1)C(=O)N1C[C@H](OCc2ccccc2-c2ccccc2)C[C@H]1CNC(=O)c1ccc(/C=C2\SC(=O)NC2=O)cc1 [Compound A-9]	5500
CC(=O)Nc1ccccc1C(=O)c1ccccc1C(=O)N1C[C@H](OCc2ccccc2-c2ccccc2)C[C@H]1CNC(=O)c1ccc(/C=C2\SC(=O)NC2=O)cc1 [Compound A-24]	5800
Cc1c(CO[C@@H]2C[C@@H](CNC(=O)c3ccc(/C=C4\SC(=O)NC4=O)cc3)N(C(=O)c3ccccc3C(=O)c3ccc(F)cc3)C2)cccc1-c1ccccc1 [Compound A-31]	200
O=C1NC(=O)/C(=C/c2ccc(C(=O)NC[C@@H]3C[C@@H](OCc4cccc(-c5ccc6ccccc6c5)c4)CN3C(=O)c3ccccc3C(=O)c3ccc(F)cc3)cc2)S1 [Compound A-42]	140
Nc1cccc(-c2ccccc2CO[C@@H]2C[C@@H](CNC(=O)c3ccc(/C=C4\SC(=O)NC4=O)cc3)N(C(=O)c3ccccc3C(=O)c3ccc(F)cc3)C2)c1 [Compound A-46]	150
O=C(COc1ccc(/C=C2\SC(=O)NC2=O)cc1)NC[C@@H]1C[C@@H](OCc2ccccc2-c2ccccc2)CN1C(=O)c1ccccc1C(=O)c1ccc(F)cc1 [Compound A-50]	670
O=C1NC(=O)C(CCCc2ccc(C(=O)NC[C@@H]3C[C@@H](OCc4ccccc4-c4ccccc4)CN3C(=O)c3ccccc3C(=O)c3ccc(F)cc3)cc2)S1 (some centres unmarked) [Compound A-51]	180
O=C1NC(=O)/C(=C/c2ccc(C(=O)NC[C@@H]3C[C@@H](OCc4ccccc4-c4ccccc4)CN3C(=O)c3ccccc3C(=O)c3ccc(F)cc3)cc2)O1 [Compound A-54]	140
O=C1NC(=O)/C(=C/c2cccc(C(=O)NC[C@@H]3C[C@@H](OCc4ccccc4-c4ccccc4)CN3C(=O)c3ccccc3C(=O)c3ccc(F)cc3)c2)S1 [Compound A-56]	2500
O=C1NC(=O)/C(=C/c2ccc(C(=O)NC[C@@H]3C[C@@H](OCc4ccccc4-c4ccccc4)CN3C(=O)c3ccccc3C(=O)c3ccc(F)cc3)o2)S1 [Compound A-64]	2200
O=C(/C=C/C#C/C=C1\SC(=O)NC1=O)NC[C@@H]1C[C@@H](OCc2ccccc2-c2ccccc2)CN1C(=O)c1ccccc1C(=O)c1ccc(F)cc1 [Compound A-66]	210
O=C1NC(=O)/C(=C/c2ccc(C(=O)NC[C@@H]3C[C@@H](Oc4ccc5c6c4CCCN6CCC5)CN3C(=O)c3ccccc3C(=O)c3ccc(F)cc3)cc2)S1 [Compound A-92]	57
COc1cccc(-c2cccc(O[C@@H]3C[C@@H](CNC(=O)c4ccc(/C=C5\SC(=O)NC5=O)cc4)N(C(=O)c4ccccc4C(=O)c4ccc(F)cc4)C3)c2)c1 [Compound A-99]	37
O=C1NC(=O)/C(=C/c2ccc(C(=O)NC[C@@H]3C[C@@H](Oc4ccccc4-c4cccnc4)CN3C(=O)c3ccccc3C(=O)c3ccc(F)cc3)cc2)S1 [Compound A-105]	150
O=C1NC(=O)/C(=C/c2ccc(C(=O)NC[C@@H]3C[C@@H](Oc4cccc(-c5cccc(O)c5)c4)CN3C(=O)c3ccccc3C(=O)c3ccc(F)cc3)cc2)S1 [Compound A-106]	200
CCOc1cccc(-c2ccccc2O[C@@H]2C[C@@H](CNC(=O)c3ccc(/C=C4\SC(=O)NC4=O)cc3)N(C(=O)c3ccccc3C(=O)c3ccc(F)cc3)C2)c1 [Compound A-110]	100
O=C1NC(=O)/C(=C/c2ccc(C(=O)NC[C@@H]3C[C@@H](Oc4ccccc4-c4ccc(-c5ccccc5)cc4)CN3C(=O)c3ccccc3C(=O)c3ccc(F)cc3)cc2)S1 [Compound A-113]	120
CC(C)c1cccc(-c2cccc3ccccc23)c1O[C@@H]1C[C@@H](CNC(=O)c2ccc(/C=C3\SC(=O)NC3=O)cc2)N(C(=O)c2ccccc2C(=O)c2ccc(F)cc2)C1 [Compound A-114]	20
